Test results reported in patent publication US20250090695A1, “IMMUNOSTIMULANT-CYTOTOXIC CONJUGATE COMPOSITION AND METHODS FOR CANCER TREATMENT” (The Research Foundation for the State University of New York, priority 2022, published 2025).

Tests used:
[1] = Biodistribution in a syngeneic model of prostate cancer with a RM1-PGLS tumor; conditions: 72 h, C57BL/6J mice
T-cells (CD3) = assay: Immuno-PET ROI analysis of 89Zr-DFO-anti-CD3 after therapy (tumor infiltrating T-cells); type: in vivo, murine subjects
Experimental: FIG. 13A-13C describes a method and results for T-cell detection using immuno-positron emission tomography (PET).
FIG. 14A-14D show graphical representations of tumor infiltrating T-cell analysis after administration of a therapeutic compound or control. Infiltration was measured using immuno-positron emission tomography (PET).

[2] = test system: CD8+ and CD4+ T-cell populations; assay: T-cell population analysis in spleen and tumor of RM1-PGLS bearing mice; type: in vivo; design: unit not given here; conditions: RM1-PGLS bearing C57BL/6J mice
Experimental: FIG. 12A-12B show graphical representations of T-cell population analysis measuring cell viability in the spleen (FIG. 12A). and in the tumor (FIG. 12B) in vivo for subjects having RM1-PGLS tumors with either an experimental ^177Lu-RIMS compound, or a control compound selected from: ^177Lu-PSMA-617, unlabeled Lu-RIMS, or a control vehicle.
^177Lu-RIMS-1 and control compounds were evaluated for immune cell recruitment.

[3] = Biodistribution in a xenograft model of prostate cancer with PC-3 PiP (PSMA(+)) and PC-3 flu (PSMA(−)) tumors; type: in vivo, Male NCr nude mice; conditions: PC-3 PiP/PC-3 flu xenograft, NCr nude mice
Experimental: Biodistribution analyses of ^177Lu-RIMS-1 and ^177Lu-PSMA-617 were carried out in a xenograft model of prostate cancer with a PC-3 PiP tumor (PSMA(+)) on the left shoulder of a murine subject, and a PC-3 flu tumor (PSMA(−)) on the right should of a murine subject. Murine subjects examined were Male NCr nude mice.

## O=C([O-])CN1CCN(CC(=O)[O-])CCN(CC(=O)NCC2CCC(C(=O)N[C@@H](Cc3ccc4ccccc4c3)C(=O)NCCCC[C@H](NC(=O)N[C@@H](CCC(=O)O)C(=O)O)C(=O)O)CC2)CCN(CC(=O)[O-])CC1.[177Lu+3] (stereo partly shown) [^177Lu-PSMA-617]
[1]
  Biodistribution RM1-PGLS tumor (% ID/g ± SD): 0.18 ± 0.06 % ID/g
  Biodistribution Sm Int (% ID/g ± SD): 0.02 ± 0.01 % ID/g
  Biodistribution Spleen (% ID/g ± SD): 0.02 ± 0.01 % ID/g
T-cells (CD3); Blood, 8 days after administration of therapy
  % Injected Dose/cc of 89Zr-DFO-anti-CD3 (ROI): 8.94 ± 0.34 % Injected Dose/cc
T-cells (CD3); Blood, 9 days after administration of therapy
  % Injected Dose/cc of 89Zr-DFO-anti-CD3 (ROI): 5.85 ± 2.22 % Injected Dose/cc
T-cells (CD3); Blood, 10 days after administration of therapy
  % Injected Dose/cc of 89Zr-DFO-anti-CD3 (ROI): 4.13 ± 0.68 % Injected Dose/cc
T-cells (CD3); Blood, 11 days after administration of therapy
  % Injected Dose/cc of 89Zr-DFO-anti-CD3 (ROI): 4.05 ± 1.24 % Injected Dose/cc
T-cells (CD3); Blood, 12 days after administration of therapy
  % Injected Dose/cc of 89Zr-DFO-anti-CD3 (ROI): 4.26 ± 0.62 % Injected Dose/cc
T-cells (CD3); Spleen, 8 days after administration of therapy
  % Injected Dose/cc of 89Zr-DFO-anti-CD3 (ROI): 21.55 ± 4.49 % Injected Dose/cc
T-cells (CD3); Spleen, 9 days after administration of therapy
  % Injected Dose/cc of 89Zr-DFO-anti-CD3 (ROI): 24.84 ± 4.91 % Injected Dose/cc
T-cells (CD3); Spleen, 10 days after administration of therapy
  % Injected Dose/cc of 89Zr-DFO-anti-CD3 (ROI): 27.09 ± 3.75 % Injected Dose/cc
T-cells (CD3); Spleen, 11 days after administration of therapy
  % Injected Dose/cc of 89Zr-DFO-anti-CD3 (ROI): 23.82 ± 3.55 % Injected Dose/cc
T-cells (CD3); Spleen, 12 days after administration of therapy
  % Injected Dose/cc of 89Zr-DFO-anti-CD3 (ROI): 24.65 ± 0.81 % Injected Dose/cc
T-cells (CD3); Tumor, 8 days after administration of therapy
  % Injected Dose/cc of 89Zr-DFO-anti-CD3 (ROI): 10.27 ± 0.024 % Injected Dose/cc
T-cells (CD3); Tumor, 9 days after administration of therapy
  % Injected Dose/cc of 89Zr-DFO-anti-CD3 (ROI): 7.83 ± 1.66 % Injected Dose/cc
T-cells (CD3); Tumor, 10 days after administration of therapy
  % Injected Dose/cc of 89Zr-DFO-anti-CD3 (ROI): 6.67 ± 3.63 % Injected Dose/cc
T-cells (CD3); Tumor, 11 days after administration of therapy
  % Injected Dose/cc of 89Zr-DFO-anti-CD3 (ROI): 3.90 ± 0.35 % Injected Dose/cc
T-cells (CD3); Tumor, 12 days after administration of therapy
  % Injected Dose/cc of 89Zr-DFO-anti-CD3 (ROI): 2.72 ± 0.81 % Injected Dose/cc
[2]; Spleen
  Total CD4+ T-cell population: 12.73 ± 2.17
  Total CD8+ T-cell population: 8.78 ± 1.61
[2]; Tumor
  Total CD4+ T-cell population: 1.47 ± 0.59
  Total CD8+ T-cell population: 4.76 ± 1.40
[3]; 2 h
  Biodistribution Blood (% ID/g ± SD): 0.95 ± 0.53 % ID/g
  Biodistribution Bone (% ID/g ± SD): 0.21 ± 0.11 % ID/g
  Biodistribution Heart (% ID/g ± SD): 0.27 ± 0.12 % ID/g
  Biodistribution Kidney (% ID/g ± SD): 5.12 ± 1.95 % ID/g
  Biodistribution Liver (% ID/g ± SD): 0.29 ± 0.14 % ID/g
  Biodistribution Muscle (% ID/g ± SD): 0.14 ± 0.05 % ID/g
  Biodistribution PSMA (+) (PC3-PIP) tumor (% ID/g ± SD): 11.78 ± 1.46 % ID/g
  Biodistribution PSMA (−) (PC3-Flu) tumor (% ID/g ± SD): 0.48 ± 0.2 % ID/g
  Biodistribution Sm Int (% ID/g ± SD): 0.28 ± 0.15 % ID/g
  Biodistribution Spleen (% ID/g ± SD): .027 ± 0.14 % ID/g
[3]; 24 h
  Biodistribution Blood (% ID/g ± SD): 0.21 ± 0.13 % ID/g
  Biodistribution Bone (% ID/g ± SD): 0.07 ± 0.010 % ID/g
  Biodistribution Heart (% ID/g ± SD): 0.09 ± 0.05 % ID/g
  Biodistribution Kidney (% ID/g ± SD): 0.57 ± 0.29 % ID/g
  Biodistribution Liver (% ID/g ± SD): 0.08 ± 0.040 % ID/g
  Biodistribution Muscle (% ID/g ± SD): 0.04 ± 0.010 % ID/g
  Biodistribution PSMA (+) (PC3-PIP) tumor (% ID/g ± SD): 8.24 ± 3.22 % ID/g
  Biodistribution PSMA (−) (PC3-Flu) tumor (% ID/g ± SD): 0.18 ± 0.13 % ID/g
  Biodistribution Sm Int (% ID/g ± SD): 0.06 ± 0.020 % ID/g
  Biodistribution Spleen (% ID/g ± SD): 0.08 ± 0.040 % ID/g
[3]; 72 h
  Biodistribution Blood (% ID/g ± SD): 0.03 ± 0.01 % ID/g
  Biodistribution Bone (% ID/g ± SD): 0.05 ± 0.01 % ID/g
  Biodistribution Heart (% ID/g ± SD): 0.03 ± 0.01 % ID/g
  Biodistribution Kidney (% ID/g ± SD): 0.08 ± 0.05 % ID/g
  Biodistribution Liver (% ID/g ± SD): 0.03 ± 0.01 % ID/g
  Biodistribution Muscle (% ID/g ± SD): 0.02 ± 0.01 % ID/g
  Biodistribution PSMA (+) (PC3-PIP) tumor (% ID/g ± SD): 3.65 ± 0.59 % ID/g
  Biodistribution PSMA (−) (PC3-Flu) tumor (% ID/g ± SD): 0.02 ± 0.01 % ID/g
  Biodistribution Sm Int (% ID/g ± SD): 0.03 ± 0.01 % ID/g
  Biodistribution Spleen (% ID/g ± SD): 0.04 ± 0.01 % ID/g
